{
  "source": "ChEMBL document CHEMBL1159146",
  "about": "“Structure-activity studies of N-cyano-3-pyridinecarboxamidines and their amide and thioamide congeners” (1994)",
  "format_in_all_cases": "functional",
  "key": {"[1]": {"species_on_record": "Cavia porcellus", "experiment": "Compound was tested for chronotropic activity in right atria of guinea pig"}, "[2]": {"species_on_record": "Cavia porcellus", "experiment": "Compound was tested for negative inotropic activity in left atria of guinea pig"}, "[3]": {"species_on_record": "Rattus norvegicus", "experiment": "Compound was tested for […] vasorelaxing activity in aorta of rat"}},
  "data": [
    {"smiles": "S=C(NCCc1ccccc1)c1cccnc1", "values": [
      {"measurement": "pD2", "setting": "[1]", "value": 4.1},
      {"measurement": "pD2", "setting": "[2]", "value": 4.39},
      {"measurement": "pD2", "setting": "[3]", "value": 4.95}
    ]},
    {"smiles": "N#CN/C(=N\\CCc1ccccc1)c1cccnc1", "values": [
      {"measurement": "pD2", "setting": "[1]", "value": 3.85},
      {"measurement": "pD2", "setting": "[2]", "value": 4.6},
      {"measurement": "pD2", "setting": "[3]", "value": 6.4}
    ]},
    {"smiles": "N#CN/C(=N\\CCO[N+](=O)[O-])c1cccnc1", "values": [
      {"measurement": "pD2", "setting": "[1]", "value": 4.42},
      {"measurement": "pD2", "setting": "[2]", "value": 4.84},
      {"measurement": "pD2", "setting": "[3]", "value": 6.95}
    ]},
    {"smiles": "O=C(NCCc1ccccc1Cl)c1cccnc1", "values": [
      {"measurement": "pD2", "setting": "[1]", "value": "<3.5"},
      {"measurement": "pD2", "setting": "[2]", "value": 3.7},
      {"measurement": "pD2", "setting": "[3]", "value": 4.83}
    ]},
    {"smiles": "S=C(NCCc1ccccc1Cl)c1cccnc1", "values": [
      {"measurement": "pD2", "setting": "[1]", "value": 4.54},
      {"measurement": "pD2", "setting": "[2]", "value": "<4.5"},
      {"measurement": "pD2", "setting": "[3]", "value": 5.64}
    ]},
    {"smiles": "O=C(NCCc1ccccc1)c1cccnc1", "values": [
      {"measurement": "pD2", "setting": "[1]", "value": "<3.5"},
      {"measurement": "pD2", "setting": "[2]", "value": "<3.5"},
      {"measurement": "pD2", "setting": "[3]", "value": 4.09}
    ]},
    {"smiles": "N#CN/C(=N\\CCc1ccccc1Cl)c1cccnc1", "values": [
      {"measurement": "pD2", "setting": "[1]", "value": 5.32},
      {"measurement": "pD2", "setting": "[2]", "value": 5.51},
      {"measurement": "pD2", "setting": "[3]", "value": 7.57}
    ]},
    {"smiles": "O=C(NCCO[N+](=O)[O-])c1cccnc1", "note": "[NICORANDIL]", "values": [
      {"measurement": "pD2", "setting": "[1]", "value": "<3.5"},
      {"measurement": "pD2", "setting": "[2]", "value": "<3.5"},
      {"measurement": "pD2", "setting": "[3]", "value": 5.62}
    ]}
  ]
}
